For this test, the system named is immobilized GST-tagged bait protein domains. As to the kind of experiment: ProP-PD phage selections (HD2 P8, sublibraries, HD2 P3, HD1 P8) with NGS and confidence level. The class given is binding, human.
Setting [1] is: library HD2, bait WDR5_WD_1234567_P61964_21_334, validated benchmark motif instance, in_library_check TRUE, TRUE/FALSE = instance recovered in ProP-PD selection.
[2] abbreviates: library HD2, bait TSG101_UEV__Q99816_1_145, validated benchmark motif instance, in_library_check TRUE, TRUE/FALSE = instance recovered in ProP-PD selection.
[3] abbreviates: library HD2, bait VASP_EVH1__P50552_1_114, validated benchmark motif instance, in_library_check TRUE, TRUE/FALSE = instance recovered in ProP-PD selection.
Setting [4] is: HD2 library, bait TNKS_TANK-peptide-bind__O95271_174_649, known motif instance of the benchmarking set found (TRUE) or not found (FALSE) among selected peptides.
[5] abbreviates: library HD2, bait EPS15_EH__P42566_121_215, best matching peptide.
Where [6] appears, read: library HD2, bait EPS15_EH__P42566_121_215, confidence level of best matching peptide (4 High, 2-3 Medium, 1 Low).
Where [7] appears, read: library HD2, bait EPS15_EH__P42566_121_215, whether the validated benchmark motif instance was recovered in the ProP-PD selection (TRUE/FALSE).
[8] abbreviates: library HD2, bait USP7_MATH-TRAF__Q93009_53_206, validated benchmark motif instance, in_library_check TRUE, TRUE/FALSE = instance recovered in ProP-PD selection.
The mark [9] stands for this setting: bait KPNA4_Arm (O00629 68-487), HD2 library, benchmark motif instance recovered in the ProP-PD selection (TRUE/FALSE).
[10] abbreviates: bait PEX14_Pex14__O75381_16_84, HD2 library, whether the validated benchmark motif instance was recovered in the ProP-PD selection (TRUE/FALSE).

For the setting “bait YAP1_WW_1_P46937_169_207, library HD”, PPGPPPPYHAHAHLHH returned an HD confidence of 3. Where the note is “bait YAP1_WW_1_P46937_169_207, library HD2 P3”, this substance returned a p3_HD2 confidence of 2. Further, under “bait YAP1_WW_1_P46937_169_207, library HD2 P3, mean normalised NGS counts”, the p3_HD2 count proportions was found to be 0.001797. The p3_HD2 mean counts (bait YAP1_WW_1_P46937_169_207, library HD2 P3, mean raw NGS counts, all selections) is 44.67. In addition, the HD2 confidence (bait YAP1_WW_1_P46937_169_207, library HD2 P8) is 4. The substance also gave an HD2_nucleus confidence (bait YAP1_WW_1_P46937_169_207, library HD2 P8 nucleus) of 4. The HD count proportions (bait YAP1_WW_1_P46937_169_207, library HD, mean normalised NGS counts) came to 0.02186. The HD mean counts (bait YAP1_WW_1_P46937_169_207, library HD, mean raw NGS counts, all selections) amounted to 187.3.

Regarding PPLNPHGAARAEVYLRKCTFD, under setting [1], the motif_found result was “FALSE”.

For PPLNPHGSARAEVHLRKSAFD, under setting [1], the motif_found entry is recorded as “FALSE”.

With PPMGEVVTPTAPQEPPESVR, under setting [2], the motif_found entry is given as “FALSE”.

As for PPPEDFPLPPPPLAGDGDD, the motif_found entry under setting [3] is reported as “FALSE”.

PPPIEESFPPAPLEEEIFP: the motif_found result under setting [3] is “FALSE”.

In the case of PPPPPEDFPLPPPPLAGDG, under setting [3], the motif_found entry is reported as “FALSE”.

Take PPRLPELAPTAPLPYPAPEA: the motif_found result (HD2 library, bait TSG101_UEV__Q99816_1_145, known motif instance of the benchmarking set found (TRUE) or not found (FALSE) among selected peptides) is on record as “FALSE”.

Substance PQLPHLQRSPPDGQSF came in with a best_specificity (HD2 library, bait TNKS_TANK-peptide-bind__O95271_174_649, best matching selected peptide) of 1. The best_confidence (HD2 library, bait TNKS_TANK-peptide-bind__O95271_174_649, confidence level of best matching selected peptide) is 2. The motif_found result under setting [4] is listed as “TRUE”.

Substance PQPKLPYLPTFPFSMP returned an HD2 confidence (bait ANKRA2_Ank__Q9H9E1_142_313, HD2 P8 selection, confidence level -4 to 4: 4 = High, 3 or 2 = Medium, 1 = Low, 0 = Filtered/Noise) of 2.

Under setting [5], PQYLNPFDEPEAFVTI came in with a best_specificity of 1. The best_confidence under setting [6] turned out to be 2. The motif_found entry under setting [7] is “TRUE”.

As to PREHQTGSARSEGYYPISKKE, the motif_found entry under setting [1] was “FALSE”.

As to PSENSNEFEWEDDLPKPKTTEVIR, the motif_found entry (library HD2, bait KLC1_TPR__Q07866_203_497, whether the validated benchmark motif instance was recovered in the ProP-PD selection (TRUE/FALSE)) is given as “FALSE”.

For the substance PSNPDLDAGVSEHSGDWLD, the motif_found result under setting [8] was “FALSE”.

For PSTNPFVAAAGPSVAS, the best_specificity under setting [5] was 1. This substance also showed a best_confidence under setting [6] of 2. For the same substance, the motif_found result under setting [7] is “TRUE”.

PSTRKDYPAAKRVKLDSVRVLR: the motif_found result under setting [9] is “FALSE”.

Take PVLEKDDLMDMDASQQNLF [HIP1]: the motif_found entry (bait CLTC_Clathrin-propeller__Q00610_1_364, library HD2, benchmarking set of validated motif instances, TRUE = motif instance recovered in the ProP-PD selection) is reported as “FALSE”.

For PYGDDMTVRKQPEGNPKPDIIE, under setting [4], the motif_found entry is “FALSE”.

As to QASALSFPAPPSRPLPPDPV [ADAM15], under “bait CRK_SH3_1_P46108_124_198, library HD2, benchmarking set of validated motif instances, TRUE = motif instance recovered in the ProP-PD selection”, the motif_found entry is “FALSE”.

“QDLLELKSVIKLQAWWRGTMIRR,DLLELKSVIKLQAWWRGTMIRREIGGFKMPK [IQCG 397-411]”: under “HD2 library, bait CALM1_EF-hand__P0DP23_2_149, benchmark motif instance, in_library_check FALSE, in_library_coverage 0”, the motif_found entry was “FALSE”.

For the substance QDYNETDWSQEFISEVTDP, the motif_found result under setting [10] is on record as “FALSE”.

As to QELLSVGSKRRRTGGSLRGN, under setting [9], the motif_found result is “FALSE”.

For QELQEEKPSSSHLVSRPST, the motif_found entry under setting [8] is listed as “FALSE”.

QENMRSSPNPFITGLTRTN: the motif_found result under setting [7] was “FALSE”.

QEPPESVRPSAPPAELEVQA: the motif_found result under setting [2] is “FALSE”.

With QERPLTNKLKRKRRPTSGLHPE, the motif_found entry under setting [9] was “FALSE”.

Turning to QFSLYTSPSLPNISLGLQATVTVT [HDAC5], the motif_found result (bait ANKRA2_Ank__Q9H9E1_142_313, library HD2, benchmarking set of validated motif instances, TRUE = motif instance recovered in the ProP-PD selection) is recorded as “TRUE”.

Regarding QGSWVELHFSNNGNGG, the motif_found entry (bait MAP1LC3A_ATG8 (Q9H492 2-121), HD2 library, benchmark motif instance recovered in the ProP-PD selection (TRUE/FALSE)) is “TRUE” and the motif_found result (bait MAP1LC3B_ATG8 (Q9GZQ8 2-119), HD2 library, benchmark motif instance recovered in the ProP-PD selection (TRUE/FALSE)) was “TRUE”. The best_confidence reads like this: (bait MAP1LC3A_ATG8 (Q9H492 2-121), HD2 library, confidence level (1-4) of best matching peptide) 3; (bait MAP1LC3B_ATG8 (Q9GZQ8 2-119), HD2 library, confidence level (1-4) of best matching peptide) 3. The best_specificity reads like this: (bait MAP1LC3A_ATG8 (Q9H492 2-121), HD2 library, specificity score of best matching peptide) 1; (bait MAP1LC3B_ATG8 (Q9GZQ8 2-119), HD2 library, specificity score of best matching peptide) 1.

Turning to QLSPNAKEFVYNGGGS, the best_confidence (bait PABP-B_PABP__P11940_544_623, HD2 library, confidence level (1-4) of best matching selected peptide) came out at 4. For the same substance, the best_specificity (bait PABP-B_PABP__P11940_544_623, HD2 library, specificity score of best matching selected peptide) came to 1. The motif_found result (bait PABP-B_PABP__P11940_544_623, HD2 library, whether the validated benchmark motif instance was recovered in the ProP-PD selection (TRUE/FALSE)) was “TRUE”.

On to QMPADTPPPAYLPPEDPM, for which, for the setting “bait NEDD4_WW_4 (P46934 890-928), HD2 library, benchmark motif instance recovered in the ProP-PD selection (TRUE/FALSE)”, the motif_found result is given as “FALSE”.

Take QQGTSDAWVDQFTRPVNTS: the motif_found entry under setting [10] is “FALSE”.

QQHEGPSLNPFDEEDLSSP: the motif_found result under setting [7] is reported as “FALSE”.

Consider “QQKQRQKHFNRQIPAAASLIQTAWRCYAAENPDSSTWKIYIRKAPRSHTLLSPSPKPKKSVVVKKKKFKLDKDNGVTPGEKMLTVPHITCDPPEERRLDHFSVDGYDSSVRKSPTLLEVSMPHFMRTNSFAEDLDLEGETLLTPITHISQLREHHRATIKVIRRMQYFVAKKKFQQARKP [KCNQ1]”, for which the motif_found entry (bait CALM1_EF-hand__P0DP23_2_149, library HD2, benchmarking set of validated motif instances, TRUE = motif instance recovered in the ProP-PD selection) is given as “FALSE”.

For the substance QQQLNWKQDSNPLYKSAITTTI, the motif_found entry (HD2 library, bait TLN1_PTB__Q9Y490_309_401, known motif instance of the benchmarking set found (TRUE) or not found (FALSE) among selected peptides) is “FALSE”.

The values above are taken from publication PMC8769072, “Proteome‐scale mapping of binding sites in the unstructured regions of the human proteome” (Molecular Systems Biology, 2022).
